{"source": "paper PMC5318439", "about": "“The Novel Toll-Like Receptor 2 Agonist SUP3 Enhances Antigen Presentation and T Cell Activation by Dendritic Cells” (Frontiers in Immunology, 2017)", "test_system": "CD11b^+ cDCs", "experiment": "Antigen presentation by CD11b+ cDCs to OT-II CD4+ T cells in vitro", "type": "cell-based, mice", "settings": "CD11b+ cDCs stimulated with 200 nM", "protocol": "Antigen presentation assays were performed as previously described ([38]). Briefly, ovalbumin (OVA) (10 µg/mL; Sigma A7641) pulsed cDCs were stimulated with or without TLR agonists for 4 h. OT-I CD8^+ T cells and OT-II CD4^+ T cells were purified and then labeled by carboxyfluorescein diacetate succinimidyl ester (CFSE) (1 µM; Molecular Probes C34554). CD8^+ cDCs were cocultured with OT-I CD8^+ T cells for 60 h, whereas CD11b^+ cDCs were cocultured with OT-II CD4^+ T cells for 96 h, both in the presence of granulocyte-macrophage colony-stimulating factor (GM-CSF) (20 ng/mL; Peprotech 315-03). Proliferated OT-I or OT-II T cells were defined as diluted CFSE signal analyzed by flow cytometry. The numbers of T cells were counted by AccuCheck counting beads (Molecular Probes PCB100). […] Cells were washed twice with cold medium and analyzed by flow cytometry.\nFigure 5 SUP3 enhanced antigen presentation ability of CD11b^+ conventional dendritic cells (cDCs) and production of antibodies against thymus-dependent (TD) antigens. […] Three days after immunization, division of OT-II CD4^+ T cells from inguinal lymph nodes were analyzed by flow cytometry (B). Absolute numbers of proliferated OT-II CD4^+ T cells were calculated in (C). […] Cells were then thoroughly washed and cocultured with CFSE-stained OT-II CD4^+ T cells for 4 days and analyzed by flow cytometry. […]", "note": "Where a SMILES comes first, the peptide text is derived from it. The star is where a group is joined. X1 = CCCCCCCCCCCCCCNC(=O)OC[C@H](C*)OC(=O)NCCCCCCCCCCCCCC; Palmitoyl = CCCCCCCCCCCCCCCC(=O)*"}
{"smiles": "CCCCCCCCCCCCCCCC(=O)N[C@@H](CSC[C@@H](COC(=O)NCCCCCCCCCCCCCC)OC(=O)NCCCCCCCCCCCCCC)C(=O)NCC(=O)N[C@@H](CCCCN)C(=O)N[C@@H](CCCCN)C(=O)N[C@@H](CCCCN)C(=O)O", "note": "[SUP3, (2S,5S,8S,14R,18R)-2,5,8-tris(4-aminobutyl)-4,7,10,13,21-pentaoxo-14-palmitamido-18-((tetradecylcarbamoyl)oxy)-20-oxa-16-thia-3,6,9,12,22-pentaazahexatriacontan-1-oic acid] (Palmitoyl-C(X1)GKKK-OH)", "values": [{"measurement": "OT-II CD4+ T cell proliferation in vitro", "value": "enhanced OT-II CD4^+ T cell proliferation"}]}
